# Laboratory results as given in the supplement of paper PMC10331698.
# ± gives the standard deviation of the averaged measurements.
# Legend:
# Assay in all cases: level (log10 ratio to DMSO vehicle control); higher = higher biomarker level / cell amount than vehicle control
# Conditions in all cases: in DMSO
# [1] = compound: FC(F)(F)C(F)(F)C(F)(F)C(F)(F)C(F)(F)C(F)(F)CC1CO1 [3-(Perfluorohexyl)-1,2-epoxypropane]
# Method: (§1)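 BioMAP Diversity Plus panel of 12 human primary cell co-culture systems (3C, 4H, LPS, SAg, BT, BF4T, BE3C, CASM3C, HDF3CGF, KF3CT, MyoF, Mphg). Compounds were added 1 h before stimulation and left for 24 h (MyoF 48 h; BT 72 h for soluble read-outs or 6 d for IgG). Biomarkers were read by ELISA, cytotoxicity by SRB, PBMC viability and proliferation by Alamar Blue. Each well value was divided by the mean of 8 DMSO control wells on the same plate and log10 transformed; duplicate blinded samples were tested at 4 concentrations.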
# [2] = compound: FC(F)(F)C(F)(F)C(F)(F)CI [Heptafluorobutyl iodide]
# Method: as §1
# [3] = compound: FC(F)(F)C(F)(F)CNCC(F)(F)C(F)(F)F [Bis(1H,1H-perfluoropropyl)amine]
# Method: as §1
# [4] = compound: NC(=O)C(F)(F)C(F)(F)C(F)(F)C(F)(F)C(N)=O [Octafluoroadipamide]
# Method: as §1
# [5] = compound: NC(=O)C(F)(F)C(F)(F)C(F)(F)C(F)F
# Method: as §1
# [6] = compound: O=C(O)C(F)(F)C(F)(F)C(F)(F)C(F)(F)C(F)(F)C(F)(F)C(F)(F)C(F)(F)C(F)(F)C(F)F [11-H-Perfluoroundecanoic acid]
# Method: as §1
# [7] = compound: O=S(=O)(Cl)C(F)(F)C(F)(F)C(F)(F)C(F)(F)C(F)(F)C(F)(F)C(F)(F)C(F)(F)F [Perfluoro-1-octanesulfonyl chloride]
# Method: as §1
Test System,level (log10) ([1]; 6700 nM),level (log10) ([1]; 20000 nM),level (log10) ([1]; 60000 nM),level (log10) ([2]; 6700 nM),level (log10) ([2]; 20000 nM),level (log10) ([2]; 60000 nM),level (log10) ([3]; 6700 nM),level (log10) ([3]; 20000 nM),level (log10) ([3]; 60000 nM),level (log10) ([4]; 6700 nM),level (log10) ([4]; 20000 nM),level (log10) ([4]; 60000 nM),level (log10) ([5]; 6700 nM),level (log10) ([5]; 20000 nM),level (log10) ([5]; 60000 nM),level (log10) ([6]; 6700 nM),level (log10) ([6]; 20000 nM),level (log10) ([7]; 6700 nM),level (log10) ([7]; 20000 nM),level (log10) ([7]; 60000 nM)
KF3CT:PAI-I,0.0145 ± 0.032,0.019 ± 0.0014,0.0195 ± 0.0021,0.0005 ± 0.0035,-0.0185 ± 0.016,-0.008 ± 0.0071,-0.008 ± 0.03,-0.0005 ± 0.005,0 ± 0.0042,-0.0155 ± 0.012,-0.0145 ± 0.025,0.004 ± 0.02,-0.005 ± 0.0042,-0.0085 ± 0.0064,-0.007 ± 0.02,-0.0025 ± 0.03,-0.12 ± 0.044,-0.036 ± 0.014,-0.116 ± 0.0057,-0.2505 ± 0.0021
KF3CT:SRB,-0.0075 ± 0.0021,-0.008,0 ± 0.013,-0.002 ± 0.0028,0 ± 0.0042,0.001 ± 0.016,-0.007 ± 0.0057,-0.007 ± 0.0014,0.0095 ± 0.011,0.0015 ± 0.00071,-0.004 ± 0.011,0.0125 ± 0.005,-0.006 ± 0.0028,-0.0005 ± 0.0064,-0.002 ± 0.013,-0.01 ± 0.017,-0.012 ± 0.0014,-0.0095 ± 0.011,-0.0315 ± 0.0078,-0.026 ± 0.0028
KF3CT:TIMP-2,-0.0095 ± 0.0064,-0.014 ± 0.013,0.003 ± 0.041,-0.023 ± 0.018,0.0135 ± 0.00071,-0.0125 ± 0.015,0.001 ± 0.017,-0.024 ± 0.014,0.016 ± 0.054,-0.0175 ± 0.00071,-0.0085 ± 0.018,0.0265 ± 0.0021,-0.006 ± 0.0057,-0.005 ± 0.013,0.0015 ± 0.019,-0.001 ± 0.0071,-0.012 ± 0.0071,-0.031 ± 0.0071,-0.0235 ± 0.018,-0.017 ± 0.051
KF3CT:uPA,0.006 ± 0.011,0.001 ± 0.011,-0.0015 ± 0.005,0.003 ± 0.0014,-0.0155 ± 0.011,-0.014 ± 0.0028,0.001 ± 0.013,0.0085 ± 0.0092,0.012 ± 0.013,-0.0015 ± 0.018,0.0005 ± 0.0035,0.0145 ± 0.018,0.008 ± 0.025,-0.0125 ± 0.028,-0.008 ± 0.021,-0.003,0.0055 ± 0.0092,0.016 ± 0.017,0.0145 ± 0.025,0.0055 ± 0.00071
LPS:CCL2/MCP-1,-0.012 ± 0.011,-0.0055 ± 0.019,0.0025 ± 0.0078,0.008 ± 0.041,0.0035 ± 0.013,0.027 ± 0.024,-0.0105 ± 0.00071,-0.006 ± 0.0085,0.0015 ± 0.03,0.003 ± 0.0042,0.0005 ± 0.0035,0.018 ± 0.021,0.009 ± 0.045,0.005 ± 0.042,0.03 ± 0.013,-0.009 ± 0.0085,-0.022 ± 0.0099,-0.0075 ± 0.0078,0.025 ± 0.021,0.0205 ± 0.029
LPS:CD40,-0.0115 ± 0.012,0.01 ± 0.014,-0.0045 ± 0.015,-0.045 ± 0.018,-0.0035 ± 0.013,0.001 ± 0.0057,0.041 ± 0.041,-0.0115 ± 0.047,-0.0155 ± 0.025,-0.044 ± 0.016,-0.022 ± 0.035,0 ± 0.0028,-0.0125 ± 0.029,-0.0045 ± 0.018,-0.03 ± 0.017,-0.0115 ± 0.015,-0.0505 ± 0.03,-0.0175 ± 0.081,-0.0145 ± 0.042,-0.027 ± 0.0042
LPS:CD62E/E-Selectin,-0.0055 ± 0.029,0 ± 0.0042,0.0165 ± 0.026,0.005 ± 0.1,-0.013 ± 0.0028,0.026 ± 0.068,0.0005 ± 0.032,-0.012 ± 0.0057,0.0125 ± 0.00071,-0.007 ± 0.02,-0.0035 ± 0.016,0.022 ± 0.0028,-0.0115 ± 0.022,-0.023 ± 0.0014,-0.016 ± 0.016,0.0035 ± 0.019,0.0095 ± 0.025,-0.0105 ± 0.0078,-0.0095 ± 0.00071,0.0585 ± 0.016
LPS:CD69,-0.024 ± 0.013,-0.0225 ± 0.015,-0.0195 ± 0.0078,-0.0635 ± 0.011,-0.054 ± 0.013,-0.021 ± 0.048,0.016 ± 0.028,0.0075 ± 0.053,0.03 ± 0.09,0.011 ± 0.1,0.033 ± 0.052,0.082 ± 0.024,0.006 ± 0.027,0.021 ± 0.035,0.0225 ± 0.061,-0.024,-0.057,-0.0255 ± 0.069,-0.032 ± 0.0071,-0.047 ± 0.052
LPS:CD106/VCAM-1,-0.002 ± 0.011,-0.0235 ± 0.015,-0.022 ± 0.017,-0.0355 ± 0.0092,-0.001 ± 0.018,-0.0485 ± 0.054,-0.005 ± 0.0057,0.001 ± 0.021,0.0065 ± 0.0064,-0.022 ± 0.047,-0.0065 ± 0.0092,0.008 ± 0.021,-0.0055 ± 0.025,-0.023 ± 0.041,-0.015 ± 0.025,0.0025 ± 0.019,-0.002 ± 0.02,-0.018 ± 0.0071,-0.0065 ± 0.0092,-0.022 ± 0.02
LPS:CD141/Thrombomodulin,-0.0405 ± 0.0035,-0.038 ± 0.0099,-0.0545 ± 0.0064,0.0135 ± 0.14,0.0175 ± 0.14,0.0485 ± 0.1,0.046 ± 0.088,0.0005 ± 0.14,-0.0095 ± 0.096,-0.029 ± 0.1,0.014 ± 0.076,0.0355 ± 0.056,-0.037 ± 0.023,-0.0225 ± 0.028,-0.02 ± 0.021,0.0875 ± 0.057,0.051 ± 0.092,-0.035 ± 0.025,-0.028 ± 0.034,0.083 ± 0.014
LPS:CD142/Tissue Factor,-0.023 ± 0.0057,-0.0095 ± 0.032,0.0015 ± 0.039,-0.046 ± 0.1,-0.013 ± 0.082,0.0295 ± 0.043,0.019 ± 0.073,-0.007 ± 0.099,0.0095 ± 0.13,-0.0225 ± 0.077,-0.004 ± 0.025,0.057 ± 0.025,-0.0215 ± 0.00071,0.005 ± 0.0028,-0.007 ± 0.0014,0.012 ± 0.034,-0.033 ± 0.041,-0.023 ± 0.055,0.0075 ± 0.0078,0.11 ± 0.0092
LPS:CXCL8/IL-8,-0.0205 ± 0.011,-0.0135 ± 0.021,0.0015 ± 0.035,0.022 ± 0.13,0.042 ± 0.076,0.087 ± 0.0071,-0.0185 ± 0.005,-0.0325 ± 0.037,0.017 ± 0.099,-0.0035 ± 0.033,0.007 ± 0.0085,0.01 ± 0.013,-0.0055 ± 0.0035,-0.0025 ± 0.035,0.016 ± 0.12,-0.0065 ± 0.023,0.016 ± 0.011,-0.005 ± 0.013,0.0425 ± 0.0092,0.159 ± 0.0057
LPS:IL-1alpha,0.003 ± 0.018,0.012 ± 0.041,0.028 ± 0.027,0.019 ± 0.11,0.0205 ± 0.023,0.0485 ± 0.029,0.0065 ± 0.04,-0.017 ± 0.027,-0.0125 ± 0.011,0.0005 ± 0.012,0.02 ± 0.017,-0.0045 ± 0.00071,0.009 ± 0.011,-0.0045 ± 0.015,0.0015 ± 0.06,-0.022 ± 0.011,0.004 ± 0.031,0.0255 ± 0.018,-0.0115 ± 0.039,-0.063 ± 0.12
LPS:M-CSF,-0.004 ± 0.0099,-0.013 ± 0.0028,0.0055 ± 0.0035,-0.0225 ± 0.0064,0.007 ± 0.023,0.0065 ± 0.011,-0.006 ± 0.083,-0.0485 ± 0.12,-0.0485 ± 0.087,-0.029 ± 0.14,0.0205 ± 0.052,0.023 ± 0.047,-0.013 ± 0.028,-0.011 ± 0.0014,0.0065 ± 0.023,-0.0035 ± 0.018,0.012 ± 0.038,-0.079 ± 0.045,-0.0105 ± 0.025,0.116 ± 0.035
LPS:SRB,-0.0045 ± 0.0035,-0.003,-0.002 ± 0.0057,-0.0035 ± 0.0021,-0.0095 ± 0.0021,0.0045 ± 0.021,-0.008 ± 0.0042,0.001 ± 0.016,-0.0015 ± 0.0021,-0.003 ± 0.011,-0.0075 ± 0.0092,0.0015 ± 0.0035,-0.011 ± 0.0071,-0.006 ± 0.0042,-0.0105 ± 0.00071,0.0045 ± 0.013,0.0055 ± 0.005,0.0035 ± 0.0035,0.005 ± 0.0028,-0.043 ± 0.023
